ChEMBL document CHEMBL1134020, “3,4-Dihydro-1-isoquinolinamines: a novel class of nitric oxide synthase inhibitors with a range of isoform selectivity and potency” (Bioorg Med Chem Lett, 2001)
“And” between values parts separate entries of the source, which are not always exact repeats. Equal entries are not always repeated.

Assays:
Nitric oxide synthase 1 = Nitric oxide synthase 1 (Rattus norvegicus, UniProt P29476); assay: Inhibition of conversion of [3H]L-Arg to [3H]L-citrulline catalyzed by neuronal NOS (n NOS) from rat cerebellum; type: functional, tissue-based
Nitric oxide synthase 3 = molecular target: T1, Nitric oxide synthase 3 (Homo sapiens, UniProt P29474); assay: Ability to inhibit conversion of [3H]L-Arg to [3H]L-citrulline catalyzed by endothelial NOS (e NOS) from HUVEC cells; type: functional, cell-based
T1 sequence (P29474 whole entry): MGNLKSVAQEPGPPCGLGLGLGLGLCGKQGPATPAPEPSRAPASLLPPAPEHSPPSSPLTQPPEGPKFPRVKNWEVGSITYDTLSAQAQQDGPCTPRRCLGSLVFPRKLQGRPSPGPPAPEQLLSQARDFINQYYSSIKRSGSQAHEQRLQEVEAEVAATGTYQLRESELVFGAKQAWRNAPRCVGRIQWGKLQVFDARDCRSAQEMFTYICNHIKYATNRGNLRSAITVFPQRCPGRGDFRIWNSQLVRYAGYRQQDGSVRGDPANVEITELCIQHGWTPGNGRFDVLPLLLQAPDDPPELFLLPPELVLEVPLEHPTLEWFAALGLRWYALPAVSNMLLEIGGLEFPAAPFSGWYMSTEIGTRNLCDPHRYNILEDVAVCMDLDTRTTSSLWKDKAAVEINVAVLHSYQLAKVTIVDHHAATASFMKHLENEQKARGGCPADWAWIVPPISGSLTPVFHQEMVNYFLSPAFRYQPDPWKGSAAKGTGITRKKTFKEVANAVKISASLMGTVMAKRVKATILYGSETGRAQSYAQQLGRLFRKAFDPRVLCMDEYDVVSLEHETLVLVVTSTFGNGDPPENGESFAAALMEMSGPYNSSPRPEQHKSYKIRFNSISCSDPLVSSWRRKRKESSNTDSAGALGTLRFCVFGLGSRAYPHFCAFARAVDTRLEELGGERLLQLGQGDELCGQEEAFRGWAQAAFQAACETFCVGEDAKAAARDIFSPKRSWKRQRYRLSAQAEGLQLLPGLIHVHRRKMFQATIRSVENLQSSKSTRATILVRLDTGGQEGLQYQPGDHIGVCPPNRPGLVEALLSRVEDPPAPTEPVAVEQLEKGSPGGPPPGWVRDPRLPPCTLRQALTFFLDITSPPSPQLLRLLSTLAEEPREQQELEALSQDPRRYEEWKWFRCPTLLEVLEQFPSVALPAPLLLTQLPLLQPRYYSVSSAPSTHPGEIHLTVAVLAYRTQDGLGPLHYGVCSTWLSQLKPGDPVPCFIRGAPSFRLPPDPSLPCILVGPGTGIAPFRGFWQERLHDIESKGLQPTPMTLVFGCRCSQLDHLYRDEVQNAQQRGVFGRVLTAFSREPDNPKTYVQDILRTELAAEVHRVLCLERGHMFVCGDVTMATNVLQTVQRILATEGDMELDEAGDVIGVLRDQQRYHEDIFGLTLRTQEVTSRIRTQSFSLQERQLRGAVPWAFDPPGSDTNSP

DLD-1 [1] = assay: (§1) Ability (at 100 catalyzed by inducible NOS (i NOS) from human DLD-1 cells; type: functional
DLD-1 [2] = assay: as §1; type: functional, cell-based
[3] = molecular target: T2, Nitric oxide synthase, inducible (Homo sapiens, UniProt P35228); assay: Ability to inhibit conversion of [3H]L-Arg to [3H]L-citrulline catalyzed by inducible NOS (i NOS) from human DLD-1 cells; type: functional, cell-based
[4] = molecular target: T2, Nitric oxide synthase, inducible; assay: Inhibitory concentration against nitric oxide synthesis in intact DLD-1 cells; type: functional, cell-based
Rattus norvegicus = organism: Rattus norvegicus; assay: Ability (at 100 catalyzed by neuronal NOS (n NOS) from rat cerebellum; type: functional
[5] = molecular target: T3, Nitric oxide synthase 3 (Homo sapiens) (UniProt P29474); assay: Ability (at 100 catalyzed by endothelial NOS (e NOS) from HUVEC cells; type: functional, cell-based; conditions: concentration not given here
T3 sequence (whole entry): T1 sequence (P29474 whole entry)

Chain of Nitric oxide synthase 1 (P29476 whole entry): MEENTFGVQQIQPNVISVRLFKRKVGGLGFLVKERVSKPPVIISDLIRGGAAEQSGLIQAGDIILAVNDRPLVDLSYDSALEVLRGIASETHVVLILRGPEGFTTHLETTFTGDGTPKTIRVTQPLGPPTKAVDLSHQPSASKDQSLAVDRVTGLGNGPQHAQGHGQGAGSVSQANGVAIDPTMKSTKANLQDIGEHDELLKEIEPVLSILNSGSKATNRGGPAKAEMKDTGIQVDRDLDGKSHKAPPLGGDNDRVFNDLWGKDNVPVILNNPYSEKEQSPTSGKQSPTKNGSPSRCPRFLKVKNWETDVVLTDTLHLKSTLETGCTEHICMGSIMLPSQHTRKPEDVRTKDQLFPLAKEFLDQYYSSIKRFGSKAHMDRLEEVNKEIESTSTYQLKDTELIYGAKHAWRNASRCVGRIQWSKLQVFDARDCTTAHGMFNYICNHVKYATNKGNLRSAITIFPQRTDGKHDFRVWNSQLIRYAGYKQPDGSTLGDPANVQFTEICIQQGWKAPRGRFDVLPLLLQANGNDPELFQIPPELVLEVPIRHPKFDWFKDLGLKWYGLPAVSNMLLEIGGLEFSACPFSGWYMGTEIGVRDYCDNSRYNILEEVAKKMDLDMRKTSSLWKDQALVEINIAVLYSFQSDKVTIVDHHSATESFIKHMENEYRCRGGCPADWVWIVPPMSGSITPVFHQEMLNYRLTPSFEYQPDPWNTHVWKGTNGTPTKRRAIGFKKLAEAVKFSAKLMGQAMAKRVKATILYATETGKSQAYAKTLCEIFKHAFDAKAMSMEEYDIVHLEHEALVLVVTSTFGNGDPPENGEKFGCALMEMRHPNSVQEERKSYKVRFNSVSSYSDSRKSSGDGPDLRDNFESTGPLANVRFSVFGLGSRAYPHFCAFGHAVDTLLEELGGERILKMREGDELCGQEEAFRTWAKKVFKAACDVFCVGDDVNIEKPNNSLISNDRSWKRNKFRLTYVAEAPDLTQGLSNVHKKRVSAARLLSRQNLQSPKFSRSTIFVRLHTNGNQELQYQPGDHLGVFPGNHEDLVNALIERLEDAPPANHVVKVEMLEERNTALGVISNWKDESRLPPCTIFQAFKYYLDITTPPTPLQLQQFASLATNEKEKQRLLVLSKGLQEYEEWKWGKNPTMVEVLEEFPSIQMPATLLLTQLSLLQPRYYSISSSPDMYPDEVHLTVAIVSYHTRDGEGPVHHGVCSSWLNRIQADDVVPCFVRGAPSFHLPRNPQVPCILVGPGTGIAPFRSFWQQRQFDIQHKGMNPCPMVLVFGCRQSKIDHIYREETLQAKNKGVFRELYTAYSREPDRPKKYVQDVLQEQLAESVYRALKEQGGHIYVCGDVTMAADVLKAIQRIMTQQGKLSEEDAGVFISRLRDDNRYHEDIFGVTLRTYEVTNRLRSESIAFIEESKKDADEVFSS
T2 sequence (P35228 whole entry): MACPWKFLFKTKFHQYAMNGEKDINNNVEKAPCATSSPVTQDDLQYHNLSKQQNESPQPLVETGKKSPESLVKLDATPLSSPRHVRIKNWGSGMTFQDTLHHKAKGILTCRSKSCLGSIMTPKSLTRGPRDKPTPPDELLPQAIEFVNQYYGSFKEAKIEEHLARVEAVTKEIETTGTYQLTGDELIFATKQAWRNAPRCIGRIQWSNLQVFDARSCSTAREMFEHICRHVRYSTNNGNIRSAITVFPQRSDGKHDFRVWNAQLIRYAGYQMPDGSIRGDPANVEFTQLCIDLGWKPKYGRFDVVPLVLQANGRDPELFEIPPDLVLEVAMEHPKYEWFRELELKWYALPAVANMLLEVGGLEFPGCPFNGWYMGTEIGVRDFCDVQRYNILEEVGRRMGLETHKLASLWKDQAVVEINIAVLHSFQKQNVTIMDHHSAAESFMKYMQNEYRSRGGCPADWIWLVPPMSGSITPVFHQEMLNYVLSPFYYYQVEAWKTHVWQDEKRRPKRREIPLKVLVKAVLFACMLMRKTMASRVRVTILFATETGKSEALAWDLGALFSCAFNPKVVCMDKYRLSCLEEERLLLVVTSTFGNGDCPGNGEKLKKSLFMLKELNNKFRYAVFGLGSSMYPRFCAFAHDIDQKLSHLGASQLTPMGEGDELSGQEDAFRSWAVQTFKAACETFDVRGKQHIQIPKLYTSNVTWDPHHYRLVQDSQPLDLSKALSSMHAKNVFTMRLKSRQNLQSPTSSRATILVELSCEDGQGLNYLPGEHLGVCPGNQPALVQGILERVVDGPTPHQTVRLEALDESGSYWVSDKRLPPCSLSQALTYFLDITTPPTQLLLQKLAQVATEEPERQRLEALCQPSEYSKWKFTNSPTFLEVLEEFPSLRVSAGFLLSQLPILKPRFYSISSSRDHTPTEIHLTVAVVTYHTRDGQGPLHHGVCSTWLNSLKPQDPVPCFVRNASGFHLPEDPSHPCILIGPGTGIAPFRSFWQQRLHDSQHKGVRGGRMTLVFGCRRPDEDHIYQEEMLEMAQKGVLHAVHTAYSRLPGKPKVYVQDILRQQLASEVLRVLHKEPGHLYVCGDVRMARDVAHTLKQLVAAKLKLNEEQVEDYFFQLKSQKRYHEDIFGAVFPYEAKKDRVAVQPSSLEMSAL

Compound | IC50 (Nitric oxide synthase 1) | IC50 (Nitric oxide synthase 3) | Inhibition (DLD-1 [1]) | Inhibition (DLD-1 [2]) | IC50 [3] | IC50 [4] | Inhibition (Rattus norvegicus) | inhibition [5]
NC1=NC(c2ccc(Cl)cc2)Cc2ccccc21 (centres undefined) | 30 µM | 86 µM | 46% | – | – | – | – | –
NC1=NC(c2ccc(F)cc2)Cc2ccc(F)cc21 (centres undefined) | 44 µM | 55 µM | 43% | – | – | – | – | –
NC1=NCCCc2ccccc21 | 2 µM | 12 µM | – | < 25% | – | – | – | –
NC1=NC(c2ccc(F)cc2)Cc2cc(F)ccc21 (centres undefined) | 20 µM | 100 µM | – | – | 9 µM | – | – | –
NC1=NC(c2ccco2)Cc2ccccc21 (centres undefined) | 0.9 µM | 5 µM | – | – | 1.2 µM | – | – | –
NC1=NC(c2nccs2)Cc2ccccc21 (centres undefined) | 8 µM | 19 µM | – | – | 4.2 µM | 880 µM | – | –
NC1=NC(c2ncc[nH]2)Cc2ccccc21 (centres undefined) | – | – | – | – | – | – | <25% | 47% and < 25%
CC(=N)NCCCC[C@H](N)C(=O)O [L-NIL] | 1.6 µM | 2.4 µM | – | – | 0.13 µM | 470 µM | – | –
NC1=NC(c2ccccc2F)Cc2ccccc21 (centres undefined) | 13 µM | 44 µM | – | – | 33 µM | – | – | –
NC1=NC(c2cccc(F)c2)Cc2ccccc21 (centres undefined) | 10 µM | 9 µM | – | – | – | – | – | < 25%
NC1=NC(c2ccccc2)Cc2ccccc21 (centres undefined) | 12 µM | 9 µM | – | – | – | – | – | < 25%
CC1Cc2ccccc2C(N)=N1 (centres undefined) | 3 µM | 4 µM | – | – | 18 µM | – | – | –
COC(=O)[C@@H](N)CCCNC(=N)N[N+](=O)[O-] [L-NAME] | 0.15 µM | 2.7 µM | – | – | 14 µM | 300 µM | – | –
NC1=NCCc2ccccc21 | 0.4 µM | 2 µM | – | – | 32 µM | – | – | –
NC1=NC(c2ccc(F)cc2)Cc2cccc(F)c21 (centres undefined) | 16 µM | – | – | – | – | 350 µM | – | < 25%
NC1=NC(c2ccc(F)cc2)Cc2ccccc21 (centres undefined) | 9 µM | 40 µM | – | – | 5.5 µM | – | – | –
NC1=NC(c2ccc(F)cc2)Cc2c(F)cccc21 (centres undefined) | 5 µM | 44 µM | – | – | 4.7 µM | – | – | –
NC1=NC(c2ccccc2)Cc2cccc(F)c21 (centres undefined) | 2 µM | 80 µM | – | – | 0.55 µM | 130 µM | – | –
NC1=NC(c2ccc(F)cc2)Cc2cccc(Cl)c21 (centres undefined) | 100 µM | 5 µM | – | – | – | 350 µM | – | 39%
N=C(N)NN [PIMAGEDINE] | 6 µM | 72 µM | – | – | 4.5 µM | – | – | –
NC1=NC(c2ccccc2)Cc2cccc(Cl)c21 (centres undefined) | – | 6 µM | – | – | – | – | 25% | < 25%
C#CC1Cc2ccccc2C(N)=N1 (centres undefined) | 0.4 µM | 0.9 µM | – | – | 2.7 µM | – | – | –
NC1=NC(c2cccs2)Cc2ccccc21 (centres undefined) | 2 µM | 8 µM | – | – | 2.7 µM | – | – | –
CC1(C)Cc2ccccc2C(N)=N1 | 10 µM | – | – | – | – | – | – | < 25%
NC1=NC(C2CC2)Cc2ccccc21 (centres undefined) | 1.5 µM | 3.6 µM | – | – | 1.3 µM | 300 µM | – | –
